Assay results from PubChem BioAssay (NCI).
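GI50 is the concentration that inhibits growth by half. TGI marks complete inhibition of growth.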

Experiments:
Assay in all cases: NCI-60 cell line screen, 384-well format
UACC-257 melanoma = system: UACC-257 melanoma
HOP-92 NSCLC = system: HOP-92 NSCLC
COLO 205 colon = system: COLO 205 colon
SW-620 colon = system: SW-620 colon
HOP-62 NSCLC = system: HOP-62 NSCLC
TK-10 renal = system: TK-10 renal
SN12C renal = system: SN12C renal
HCT-116 colon = system: HCT-116 colon
SNB-75 CNS = system: SNB-75 CNS
RXF 393 renal = system: RXF 393 renal
LOX IMVI melanoma = system: LOX IMVI melanoma
MDA-MB-435 melanoma = system: MDA-MB-435 melanoma
CAKI-1 renal = system: CAKI-1 renal
RPMI-8226 leukemia = system: RPMI-8226 leukemia
HT29 colon = system: HT29 colon
U251 glioblastoma = system: U251 glioblastoma
SR leukemia = system: SR leukemia
ACHN renal = system: ACHN renal
HCC-2998 colon = system: HCC-2998 colon
A549 NSCLC = system: A549 NSCLC
MOLT-4 leukemia = system: MOLT-4 leukemia
NCI/ADR-RES ovarian = system: NCI/ADR-RES ovarian
NCI-H522 lung = system: NCI-H522 lung
OVCAR-4 ovarian = system: OVCAR-4 ovarian
SK-MEL-28 melanoma = system: SK-MEL-28 melanoma
OVCAR-8 ovarian = system: OVCAR-8 ovarian
SK-OV-3 ovarian = system: SK-OV-3 ovarian
CCRF-CEM leukemia = system: CCRF-CEM leukemia
SF-295 CNS = system: SF-295 CNS
SK-MEL-5 melanoma = system: SK-MEL-5 melanoma
NCI-H460 NSCLC = system: NCI-H460 NSCLC
MDA-MB-231 breast = system: MDA-MB-231 breast
PC-3 prostate = system: PC-3 prostate
786-0 renal = system: 786-0 renal
SF-268 CNS = system: SF-268 CNS
EKVX NSCLC = system: EKVX NSCLC
IGROV1 ovarian = system: IGROV1 ovarian
NCI-H23 lung = system: NCI-H23 lung
MDA-MB-468 breast = system: MDA-MB-468 breast
SF-539 CNS = system: SF-539 CNS
NCI-H226 lung = system: NCI-H226 lung
MALME-3M melanoma = system: MALME-3M melanoma
UACC-62 melanoma = system: UACC-62 melanoma
KM12 colon = system: KM12 colon
OVCAR-3 ovarian = system: OVCAR-3 ovarian
K-562 leukemia = system: K-562 leukemia
A498 renal = system: A498 renal
HCT-15 colon = system: HCT-15 colon
M14 melanoma = system: M14 melanoma
T-47D breast = system: T-47D breast
MCF7 breast = system: MCF7 breast
HL-60(TB) leukemia = system: HL-60(TB) leukemia
UO-31 renal = system: UO-31 renal
DU-145 prostate = system: DU-145 prostate
NCI-H322M lung = system: NCI-H322M lung
OVCAR-5 ovarian = system: OVCAR-5 ovarian
SK-MEL-2 melanoma = system: SK-MEL-2 melanoma
SNB-19 CNS = system: SNB-19 CNS
BT-549 breast = system: BT-549 breast

Cc1nn(C)c(COc2ccc(N3CCN(S(=O)(=O)N(C)C)CC3)cc2)c1-c1cccc2c(CCCOc3cccc4ccccc34)c(C(=O)O)n(CCN3CCOCC3)c12
GI50 (UACC-257 melanoma): 2.99 µM
TGI (UACC-257 melanoma): 7.34 µM
GI50 (HOP-92 NSCLC): 3.32 µM
TGI (HOP-92 NSCLC): 8.76 µM
GI50 (COLO 205 colon): 4.33 µM
TGI (COLO 205 colon): 13.3 µM
GI50 (SW-620 colon): 3.46 µM
TGI (SW-620 colon): 10.6 µM
GI50 (HOP-62 NSCLC): 4.22 µM
TGI (HOP-62 NSCLC): 11.3 µM
GI50 (TK-10 renal): 4.94 µM
TGI (TK-10 renal): 14.1 µM
GI50 (SN12C renal): 3.55 µM
TGI (SN12C renal): 12.7 µM
GI50 (HCT-116 colon): 2.87 µM
TGI (HCT-116 colon): 8.51 µM
GI50 (SNB-75 CNS): 3.52 µM
TGI (SNB-75 CNS): 8.36 µM
GI50 (RXF 393 renal): 1.79 µM
TGI (RXF 393 renal): 5.04 µM
GI50 (LOX IMVI melanoma): 5.6 µM
TGI (LOX IMVI melanoma): 13.5 µM
GI50 (MDA-MB-435 melanoma): 4.32 µM
TGI (MDA-MB-435 melanoma): 14.6 µM
GI50 (CAKI-1 renal): 6.88 µM
TGI (CAKI-1 renal): 17.6 µM
GI50 (RPMI-8226 leukemia): 1.76 µM
TGI (RPMI-8226 leukemia): 3.16 µM
GI50 (HT29 colon): 2.72 µM
TGI (HT29 colon): 7.13 µM
GI50 (U251 glioblastoma): 3.67 µM
TGI (U251 glioblastoma): 11.8 µM
GI50 (SR leukemia): 1.57 µM
TGI (SR leukemia): 2.93 µM
GI50 (ACHN renal): 6.55 µM
TGI (ACHN renal): 17.6 µM
GI50 (HCC-2998 colon): 3.09 µM
TGI (HCC-2998 colon): 7.88 µM
GI50 (A549 NSCLC): 9.44 µM
TGI (A549 NSCLC): 23.3 µM
GI50 (MOLT-4 leukemia): 2.02 µM
TGI (MOLT-4 leukemia): 3.66 µM
GI50 (NCI/ADR-RES ovarian): 32.8 µM
TGI (NCI/ADR-RES ovarian): > 92.7 µM
GI50 (NCI-H522 lung): 2.64 µM
TGI (NCI-H522 lung): 5.42 µM
GI50 (OVCAR-4 ovarian): 3.43 µM
TGI (OVCAR-4 ovarian): 9.25 µM
GI50 (SK-MEL-28 melanoma): 3.07 µM
TGI (SK-MEL-28 melanoma): 7.47 µM
GI50 (OVCAR-8 ovarian): 3.73 µM
TGI (OVCAR-8 ovarian): 12.9 µM
GI50 (SK-OV-3 ovarian): 5.61 µM
TGI (SK-OV-3 ovarian): 13.6 µM
GI50 (CCRF-CEM leukemia): 2.41 µM
TGI (CCRF-CEM leukemia): 4.78 µM
GI50 (SF-295 CNS): 2.94 µM
TGI (SF-295 CNS): 7.54 µM
GI50 (SK-MEL-5 melanoma): 2.92 µM
TGI (SK-MEL-5 melanoma): 7.26 µM
GI50 (NCI-H460 NSCLC): 5.22 µM
TGI (NCI-H460 NSCLC): 14.9 µM
GI50 (MDA-MB-231 breast): 4.49 µM
TGI (MDA-MB-231 breast): 13.3 µM
GI50 (PC-3 prostate): 3.72 µM
TGI (PC-3 prostate): 10.9 µM
GI50 ([…]-0 renal): 5.67 µM
TGI (786-0 renal): 13.8 µM
GI50 (SF-268 CNS): 5.48 µM
TGI (SF-268 CNS): 15.2 µM
GI50 (EKVX NSCLC): 4.87 µM
TGI (EKVX NSCLC): 16.7 µM
GI50 (IGROV1 ovarian): 3.11 µM
TGI (IGROV1 ovarian): 8.58 µM
GI50 (NCI-H23 lung): 3.54 µM
TGI (NCI-H23 lung): 9.43 µM
GI50 (MDA-MB-468 breast): 2.3 µM
TGI (MDA-MB-468 breast): 4.43 µM
GI50 (SF-539 CNS): 3.57 µM
TGI (SF-539 CNS): 9.98 µM
GI50 (NCI-H226 lung): 3.65 µM
TGI (NCI-H226 lung): 10.3 µM
GI50 (MALME-3M melanoma): 3.73 µM
TGI (MALME-3M melanoma): 10.5 µM
GI50 (UACC-62 melanoma): 2.67 µM
TGI (UACC-62 melanoma): 5.65 µM
GI50 (KM12 colon): 4.51 µM
TGI (KM12 colon): 12.2 µM
GI50 (OVCAR-3 ovarian): 2.32 µM
TGI (OVCAR-3 ovarian): 5.26 µM
GI50 (K-562 leukemia): 4.21 µM
TGI (K-562 leukemia): 13.8 µM
GI50 (A498 renal): 3.63 µM
TGI (A498 renal): 11.1 µM
GI50 (HCT-15 colon): 12.1 µM
TGI (HCT-15 colon): 25.5 µM
GI50 (M14 melanoma): 4.13 µM
TGI (M14 melanoma): 9.35 µM
GI50 (T-47D breast): 3.6 µM
TGI (T-47D breast): 10.8 µM
GI50 (MCF7 breast): 3.06 µM
TGI (MCF7 breast): 8.69 µM
GI50 (HL-60(TB) leukemia): 2.12 µM
TGI (HL-60(TB) leukemia): 3.58 µM
GI50 (UO-31 renal): 9.73 µM
TGI (UO-31 renal): 21.5 µM
GI50 (DU-145 prostate): 6.23 µM
TGI (DU-145 prostate): 16.2 µM
GI50 (NCI-H322M lung): 6.07 µM
TGI (NCI-H322M lung): 14.6 µM
GI50 (OVCAR-5 ovarian): 5.75 µM
TGI (OVCAR-5 ovarian): 16.2 µM
GI50 (SK-MEL-2 melanoma): 2.14 µM
TGI (SK-MEL-2 melanoma): 3.92 µM
GI50 (SNB-19 CNS): 3.77 µM
TGI (SNB-19 CNS): 12.8 µM
GI50 (BT-549 breast): 3.49 µM
TGI (BT-549 breast): 8.64 µM
